This is an account of results in patent US9845310B2 (priority 2015, dated 2017).

The target of assay [1] is APJ (Homo sapiens (Human), UniProt P35414). To be noted: 2003 study, Medhurst et al.; cited from earlier work.
For assay [2], the system named is heart failure rat model. Type of assay: in vivo. As to conditions: for MI Rat Model dP/dtmax(%): in vivo heart failure (MI) rat, acute administration for 30 min. The method, then:
Male Lewis rats (Charles River, USA) at 2-3 months of age were used for the study. […] APJ agonists were administered dose dependently acutely for a period of 30 min.

The target of assay [3] is human APJ and the AT1R receptor (Homo sapiens (Human), UniProt P30556+P35414). Briefly: IP1 TR-FRET assay of AngII response with or without APJ agonists in double stable CHO-K1 APJ/AT1R cells. As to conditions: in the presence of AngII; losartan added. The assay is classed as cell-based. On the technique in general: In TR-FRET formats the signal depends on donor and acceptor labels being close together.
Sequence of human APJ and the AT1R receptor (P35414 whole entry, looked up): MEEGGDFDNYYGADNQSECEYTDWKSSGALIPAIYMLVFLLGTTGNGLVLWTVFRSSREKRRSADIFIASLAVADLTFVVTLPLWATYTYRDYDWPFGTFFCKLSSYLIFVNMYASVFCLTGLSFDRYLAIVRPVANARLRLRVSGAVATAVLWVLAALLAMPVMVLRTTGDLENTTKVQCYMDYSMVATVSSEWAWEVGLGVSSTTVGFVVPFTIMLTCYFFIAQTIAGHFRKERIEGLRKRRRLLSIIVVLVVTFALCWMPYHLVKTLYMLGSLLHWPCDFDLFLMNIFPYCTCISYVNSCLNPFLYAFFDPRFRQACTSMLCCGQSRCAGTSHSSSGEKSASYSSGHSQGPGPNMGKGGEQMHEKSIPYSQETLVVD
Sequence of human APJ and the AT1R receptor (P30556 whole entry, looked up): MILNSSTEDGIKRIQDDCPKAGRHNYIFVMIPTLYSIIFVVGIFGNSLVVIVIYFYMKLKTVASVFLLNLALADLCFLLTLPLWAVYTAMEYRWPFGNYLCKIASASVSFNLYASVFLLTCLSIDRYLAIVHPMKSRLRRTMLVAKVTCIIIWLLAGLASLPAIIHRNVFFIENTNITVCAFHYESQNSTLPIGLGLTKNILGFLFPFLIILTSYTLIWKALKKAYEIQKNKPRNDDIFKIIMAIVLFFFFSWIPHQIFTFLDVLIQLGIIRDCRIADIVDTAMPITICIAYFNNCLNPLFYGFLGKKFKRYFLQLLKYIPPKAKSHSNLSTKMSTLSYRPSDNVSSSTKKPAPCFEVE
Protocol: Single and double stable recombinant cell lines were generated for human APJ and the AT1R receptor in CHO K1 cells tagged either with FLAG or hemagglutinin (HA) tag. Briefly, the CHO-K1 APJ/AT1R cells were seeded in culture medium of DMEM-F12 and 10% FBS at a density of 15 k/well in a 96 well plate overnight. The next day, the culture medium was replaced with medium containing no serum for 4 hours. The compound AngII at a range of concentrations (1 pM-10 μM) with or without different concentrations of APJ agonists were diluted in stimulation buffer and added to the cell plate. The plate was sealed and incubated for 1 hour. This was followed by addition of IP-d2 conjugate followed by europium cryptate antibody conjugate into the wells. The plate was sealed, followed with incubation for 2 hours at room temperature. Time-resolved fluorescence resonance energy (TR-FRET) at 620 nm and 665 nm was measured after 2 hours with an Envision reader. The signal ratios and delta F were calculated and the amount of IP1 produced was inversely proportional to the TR-FRET ratio, 665/620 nm.

The subject of assay [4] is isolated perfused rat hearts. Briefly: Ex vivo isolated perfused rat heart (Langendorff) assay, load independent inotropic and lusitropic effects. To be noted: ARB losartan together with APJ agonist.
Assay [5] deals with human AT1R receptor expressed in the CHO cell line (Homo sapiens (Human), UniProt P30556). As to conditions: different concentrations of AngII with fixed concentration of pyr apelin-13; human AT1R expressed alone in CHO cells. The method, then:
The function of the inositol phosphate accumulation (IP1) was measured by Time-resolved fluorescence resonance energy (TR-FRET) at 620 nm and 665 nm respectively.

Assay [6] has as its system naive Sprague Dawley rat hearts. As to conditions: ex vivo isolated perfused rat heart, percent change over vehicle; for Isolated Heart Assay dP/dtmax(%): contractility; for Isolated Heart Assay dP/dtmin(%): relaxation (lusitropic).
In assay [7] the test system is heart failure rat model. As to conditions: captopril alone, acute settings, heart failure rats in vivo.

Sequence of APJ (P35414 whole entry): as the sequence (P35414 whole entry, looked up) above
Sequence of human AT1R receptor expressed in the CHO cell line (P30556 whole entry): as the sequence (P30556 whole entry, looked up) above

As for apelin-36, the “in vitro activity compared among apelin-36, apelin-17 and apelin-13” value in assay [1] is “approximately equipotent”. With apelin-17, the “in vitro activity compared among apelin-36, apelin-17 and apelin-13” value in assay [1] is recorded as “approximately equipotent”. Turning to `CCCCc1nc(Cl)c(CO)n1Cc1ccc(-c2ccccc2-c2nn[nH]n2)cc1` [losartan], in assay [2] (ARB losartan together with APJ agonist), the “APJ receptor signaling on blocking AT1R, in vivo studies” value is reported as “synergistic effects”. In addition, the “effect on the positive cooperativity induced by APJ small molecule agonists” value in assay [3] was “relieved this cooperativity”. In addition, in assay [4], the “APJ receptor signaling on blocking AT1R, ex-vivo studies” value is recorded as “synergistic effects”. In the case of pyr apelin-13, the “positive cooperativity (IP1 accumulation)” value in assay [5] is listed as “no positive cooperativity observed”. On to `COc1cccc(OC)c1-n1c(NS(=O)(=O)[C@@H](C)[C@H](OC)c2ncc(C)cn2)nnc1-c1cncc(C)c1` [Example 203.0, (1R,2S)-N-(4-(2,6-dimethoxyphenyl)-5-(5-methyl-3-pyridinyl)-4H-1,2,4-triazol-3-yl)-1-methoxy-1-(5-methyl-2-pyrimiidnyl)-2-propanesulfonamide], for which the “MI Rat Model dP/dtmax(%)” value in assay [2] is listed as 12%. For the same compound, in assay [6], the “Isolated Heart Assay dP/dtmax(%)” value is reported as “No effect” and the “Isolated Heart Assay dP/dtmin(%)” value is “No effect”. Take `C[C@H](CS)C(=O)N1CCC[C@H]1C(=O)O` [Captopril, captopril]: the “contractility or ejection fraction” value in assay [7] is on record as “does not show a marked improvement”. In the case of `COc1cccc(OC)c1-n1c(NS(=O)(=O)[C@H](C)[C@@H](C)c2ncc(Cl)cn2)nnc1-c1cccnc1` (racemic) [Example 694.0, (2R,3S)-3-(5-chloropyrimidin-2-yl)-N-(4-(2,6-dimethoxyphenyl)-5-(pyridin-3-yl)-4H-1,2,4-triazol-3-yl)butane-2-sulfonamide or (2S,3R)-3-(5-chloropyrimidin-2-yl)-N-(4-(2,6-dimethoxyphenyl)-5-(pyridin-3-yl)-4H-1,2,4-triazol-3-yl)butane-2-sulfonamide], the “MI Rat Model dP/dtmax(%)” value in assay [2] stood at 8%. Also, in assay [6], the “Isolated Heart Assay dP/dtmax(%)” value was 18.0% and the “Isolated Heart Assay dP/dtmin(%)” value is listed as 32.0%.
